Assay [1] concerns the target Macrophage colony-stimulating factor 1 receptor (Homo sapiens, UniProt P07333). The assay can be described thus: Enzymatic Assay: Activity of unphosphorylated c-FMS kinase (uFMS, Seq. ID no. 1) was determined by following the production of ADP from the FMS kinase reaction with ATP and poly E4Y as substrates through coupling with the pyruvate kinase/lactate dehydrogenase system (e.g., Schindler et al. Science (2000) 289: 1938-1942). In this assay, the oxidation of NADH (thus the decrease at A340 nm) was continuously monitored spectrophometrically. The reaction mixture (100 µL) contained FMS (purchased from Millipore) (10 nM), polyE4Y (1 mg/mL), MgCl2 (10 mM), pyruvate kinase (4 units), lactate dehydrogenase (0.7 units), phosphoenol pyruvate (1 mM), NADH (0.28 mM) and ATP (500 µM) in 90 mM Tris buffer containing 0.2% octyl-glucoside and 1% DMSO, pH 7.5. The inhibition reaction was started by mixing serial diluted test compound with the above reaction mixture. The absorption at 340 nm was monitored continuously for 4 hours at 30° C. on Synergy 2 plate reader.

Assay [2] addresses Hepatocyte growth factor receptor (Homo sapiens, UniProt P08581). The assay can be described thus: (§1) In Vitro Receptor Tyrosine Kinase Assay: These tests measure the ability of compounds to inhibit the enzymatic activity of recombinant human c-Met/HGF receptor and VEGF receptor enzymatic activity. A 1.3-kb cDNA corresponding to the intracellular domain of c-Met or c-Met IC (Genbank accession number NP000236-1 amino acid 1078 to 1337) is cloned into the BamHI/XhoI sites of the pBlueBacHis2A vector (Invitrogen) for the production of a histidine-tagged version of that enzyme. This construct is used to generate recombinant baculovirus using the Bac-N-Blue¿ system according to the manufacturer's instructions (Invitrogen). The c-Met IC protein is expressed in Hi-5 cells (Trichoplusia Ni) upon infection with recombinant baculovirus construct. Briefly, Hi-5 cells grown in suspension and maintained in serum-free medium (Sf900 II supplemented with gentamycin) at a cell density of about 2x10^6 cells/ml are infected with the above-mentioned viruses at a multiplicity of infection (MOI) of 0.2 during 72 hours at 27 C.

Assay [3] concerns the target Vascular endothelial growth factor receptor 2 (Homo sapiens, UniProt P35968). The description is as §1.

Chain of Hepatocyte growth factor receptor (P08581 whole entry, the tested form may be a part): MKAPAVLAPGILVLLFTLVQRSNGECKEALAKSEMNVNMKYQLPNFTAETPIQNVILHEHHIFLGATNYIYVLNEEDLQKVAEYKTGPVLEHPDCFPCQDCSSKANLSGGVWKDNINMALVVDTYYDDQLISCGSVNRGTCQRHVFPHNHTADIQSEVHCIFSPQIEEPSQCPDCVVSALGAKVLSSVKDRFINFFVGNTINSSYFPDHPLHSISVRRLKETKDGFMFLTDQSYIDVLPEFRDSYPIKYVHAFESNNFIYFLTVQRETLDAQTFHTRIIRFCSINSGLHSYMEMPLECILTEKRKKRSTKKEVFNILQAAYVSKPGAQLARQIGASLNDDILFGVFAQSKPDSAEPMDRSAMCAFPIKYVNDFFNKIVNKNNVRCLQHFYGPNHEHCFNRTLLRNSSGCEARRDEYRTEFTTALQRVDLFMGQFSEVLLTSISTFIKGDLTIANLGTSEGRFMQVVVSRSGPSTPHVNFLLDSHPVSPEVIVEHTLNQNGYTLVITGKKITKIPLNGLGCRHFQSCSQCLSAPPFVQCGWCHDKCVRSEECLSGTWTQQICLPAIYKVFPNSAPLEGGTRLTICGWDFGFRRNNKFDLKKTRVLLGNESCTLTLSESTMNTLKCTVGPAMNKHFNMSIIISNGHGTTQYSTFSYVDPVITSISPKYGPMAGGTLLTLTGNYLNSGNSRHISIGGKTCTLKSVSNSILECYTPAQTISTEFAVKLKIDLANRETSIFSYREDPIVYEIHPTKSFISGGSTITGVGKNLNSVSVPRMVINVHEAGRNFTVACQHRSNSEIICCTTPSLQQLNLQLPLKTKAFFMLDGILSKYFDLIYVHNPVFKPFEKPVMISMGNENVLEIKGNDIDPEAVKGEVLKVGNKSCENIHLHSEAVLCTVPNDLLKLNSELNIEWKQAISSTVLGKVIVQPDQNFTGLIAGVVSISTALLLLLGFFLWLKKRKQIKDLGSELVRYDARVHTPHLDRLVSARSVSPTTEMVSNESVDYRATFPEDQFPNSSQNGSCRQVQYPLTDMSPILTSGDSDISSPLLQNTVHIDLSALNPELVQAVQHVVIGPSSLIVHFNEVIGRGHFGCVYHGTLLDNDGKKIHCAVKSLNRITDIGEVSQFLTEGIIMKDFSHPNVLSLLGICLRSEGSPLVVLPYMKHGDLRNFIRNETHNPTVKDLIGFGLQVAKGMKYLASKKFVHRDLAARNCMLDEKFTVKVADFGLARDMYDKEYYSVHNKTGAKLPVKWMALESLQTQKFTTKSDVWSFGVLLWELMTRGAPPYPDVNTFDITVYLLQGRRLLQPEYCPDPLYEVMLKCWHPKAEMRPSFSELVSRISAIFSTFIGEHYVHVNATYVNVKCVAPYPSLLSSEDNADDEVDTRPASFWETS
Chain of Macrophage colony-stimulating factor 1 receptor (P07333 whole entry): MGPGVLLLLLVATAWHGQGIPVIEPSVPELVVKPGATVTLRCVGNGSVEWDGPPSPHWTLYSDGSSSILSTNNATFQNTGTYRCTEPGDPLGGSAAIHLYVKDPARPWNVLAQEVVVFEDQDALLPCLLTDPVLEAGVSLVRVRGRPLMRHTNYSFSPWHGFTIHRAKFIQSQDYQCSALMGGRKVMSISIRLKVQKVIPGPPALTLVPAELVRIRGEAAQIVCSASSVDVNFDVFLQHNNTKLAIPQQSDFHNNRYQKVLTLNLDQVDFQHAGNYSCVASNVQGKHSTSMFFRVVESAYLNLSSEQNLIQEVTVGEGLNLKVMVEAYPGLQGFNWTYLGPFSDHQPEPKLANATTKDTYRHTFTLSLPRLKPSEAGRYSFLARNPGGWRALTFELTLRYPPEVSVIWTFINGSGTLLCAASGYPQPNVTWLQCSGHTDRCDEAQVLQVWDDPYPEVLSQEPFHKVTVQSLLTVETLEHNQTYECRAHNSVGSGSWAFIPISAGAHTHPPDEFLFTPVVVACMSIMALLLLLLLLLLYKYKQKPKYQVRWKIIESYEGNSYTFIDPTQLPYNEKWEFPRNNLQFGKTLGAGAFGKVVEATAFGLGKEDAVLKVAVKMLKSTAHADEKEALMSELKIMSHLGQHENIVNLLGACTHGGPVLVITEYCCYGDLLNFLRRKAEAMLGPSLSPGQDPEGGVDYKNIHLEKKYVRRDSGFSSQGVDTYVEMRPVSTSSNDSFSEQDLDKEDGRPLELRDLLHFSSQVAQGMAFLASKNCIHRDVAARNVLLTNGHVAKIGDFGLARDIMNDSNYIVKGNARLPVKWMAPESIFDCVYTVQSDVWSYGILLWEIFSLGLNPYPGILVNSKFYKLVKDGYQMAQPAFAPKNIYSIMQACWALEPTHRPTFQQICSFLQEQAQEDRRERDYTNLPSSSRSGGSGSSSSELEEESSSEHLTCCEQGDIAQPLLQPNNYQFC
Chain of Vascular endothelial growth factor receptor 2 (P35968 whole entry): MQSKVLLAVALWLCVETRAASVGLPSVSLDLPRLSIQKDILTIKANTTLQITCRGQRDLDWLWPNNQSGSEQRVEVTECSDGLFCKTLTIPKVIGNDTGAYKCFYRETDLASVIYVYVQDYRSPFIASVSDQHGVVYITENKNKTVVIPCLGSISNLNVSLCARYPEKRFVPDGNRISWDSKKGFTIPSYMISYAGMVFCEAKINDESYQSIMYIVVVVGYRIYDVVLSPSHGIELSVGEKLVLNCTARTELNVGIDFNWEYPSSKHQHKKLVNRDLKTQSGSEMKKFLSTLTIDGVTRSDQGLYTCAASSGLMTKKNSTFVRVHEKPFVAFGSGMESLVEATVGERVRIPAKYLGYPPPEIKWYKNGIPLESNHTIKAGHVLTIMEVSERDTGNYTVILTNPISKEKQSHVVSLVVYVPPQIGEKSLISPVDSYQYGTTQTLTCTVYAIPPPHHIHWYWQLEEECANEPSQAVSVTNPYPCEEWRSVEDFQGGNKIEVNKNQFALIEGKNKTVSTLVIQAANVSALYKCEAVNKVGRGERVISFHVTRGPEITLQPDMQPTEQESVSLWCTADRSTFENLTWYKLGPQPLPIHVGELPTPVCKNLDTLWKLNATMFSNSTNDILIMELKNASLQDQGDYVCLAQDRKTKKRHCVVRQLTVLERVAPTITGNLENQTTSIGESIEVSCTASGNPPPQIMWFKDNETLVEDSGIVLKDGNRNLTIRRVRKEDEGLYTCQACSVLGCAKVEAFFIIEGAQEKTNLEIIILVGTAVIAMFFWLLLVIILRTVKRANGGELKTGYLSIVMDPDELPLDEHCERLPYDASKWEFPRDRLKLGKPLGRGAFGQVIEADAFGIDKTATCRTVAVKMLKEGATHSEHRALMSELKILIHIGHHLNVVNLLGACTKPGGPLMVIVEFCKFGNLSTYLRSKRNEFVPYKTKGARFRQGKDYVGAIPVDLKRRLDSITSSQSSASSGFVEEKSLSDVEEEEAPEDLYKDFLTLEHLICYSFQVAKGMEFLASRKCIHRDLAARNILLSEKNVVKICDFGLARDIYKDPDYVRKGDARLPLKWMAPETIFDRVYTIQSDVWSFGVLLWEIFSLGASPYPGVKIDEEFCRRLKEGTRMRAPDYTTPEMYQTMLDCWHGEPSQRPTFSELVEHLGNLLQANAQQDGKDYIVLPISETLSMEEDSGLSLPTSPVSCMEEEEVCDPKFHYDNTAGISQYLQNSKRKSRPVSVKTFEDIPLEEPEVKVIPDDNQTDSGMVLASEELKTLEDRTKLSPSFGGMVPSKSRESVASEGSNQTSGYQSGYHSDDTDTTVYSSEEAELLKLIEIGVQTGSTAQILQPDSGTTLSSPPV

With `Cn1cc(-c2cc(Oc3ccc(NC(=O)N4CCN(c5ccc(F)cc5)C4=O)nc3)ccn2)cn1`, the IC50 in assay [1] was determined as 13 nM; in assay [2], 196 nM; in assay [3], 990 nM.

What is called IC50 is the concentration at which inhibition is half-maximal.

(Values after ChEMBL document CHEMBL3886253, “Imidazolidinones and analogs exhibiting anti-cancer and anti-proliferative activities” (2015).)
